Measured values published in PubChem BioAssay AID192 (DTP/NCI, 2004).
Several values for one entry are separate records, joined by “and”; a condition that tells them apart may be missing. Identical values can stand only once. Inconclusive results and toxic doses are left out.

System: BDF1 mice, B16 melanoma ip, median survival T/C
Experiment: NCI In Vivo Anticancer Drug Screen. Data for tumor model B16 Melanoma (intraperitoneal) in B6D2F1 (BDF1) mice
Conditions: endpoint: median survival time, higher = longer survival
In short: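 The ratio T/C compares compound-treated mice with vehicle-treated controls, using survival or tumor size as the endpoint in a transplantable tumor model.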

[1] = dose: 6.25 mg/kg/injection, schedule: Q01DX009 (ip), vehicle: Klucel (hydroxypropylcellulose) (HPC)
[2] = dose: 12.5 mg/kg/injection, schedule: Q01DX009 (ip), vehicle: Klucel (hydroxypropylcellulose) (HPC)
[3] = dose: 25.0 mg/kg/injection, schedule: Q01DX009 (ip), vehicle: Klucel (hydroxypropylcellulose) (HPC)
[4] = dose: 50.0 mg/kg/injection, schedule: Q01DX009 (ip), vehicle: Klucel (hydroxypropylcellulose) (HPC)
[5] = dose: 100.0 mg/kg/injection, schedule: Q01DX009 (ip), vehicle: Klucel (hydroxypropylcellulose) (HPC)
[6] = dose: 200.0 mg/kg/injection, schedule: Q01DX009 (ip), vehicle: Klucel (hydroxypropylcellulose) (HPC)
[7] = dose: 400.0 mg/kg/injection, schedule: Q01DX009 (ip), vehicle: Klucel (hydroxypropylcellulose) (HPC)
[8] = dose: 50.0 mg/kg/injection, schedule: Q01DX009 (ip), vehicle: water
[9] = dose: 100.0 mg/kg/injection, schedule: Q01DX009 (ip), vehicle: saline with Tween-80
[10] = dose: 200.0 mg/kg/injection, schedule: Q01DX009 (ip), vehicle: saline with Tween-80
[11] = dose: 400.0 mg/kg/injection, schedule: Q01DX009 (ip), vehicle: saline with Tween-80
[12] = dose: 6.25 mg/kg/injection, schedule: Q01DX009 (ip), vehicle: saline
[13] = dose: 12.5 mg/kg/injection, schedule: Q01DX009 (ip), vehicle: saline
[14] = dose: 25.0 mg/kg/injection, schedule: Q01DX009 (ip), vehicle: saline
[15] = dose: 12.5 mg/kg/injection, schedule: Q01DX009 (ip), vehicle: saline with Tween-80
[16] = dose: 25.0 mg/kg/injection, schedule: Q01DX009 (ip), vehicle: saline with Tween-80
[17] = dose: 50.0 mg/kg/injection, schedule: Q01DX009 (ip), vehicle: saline with Tween-80

With O=c1[nH]cc(N(CCCl)CCCl)c(=O)[nH]1 the T/C (dose: 0.05 mg/kg/injection, schedule: Q01DX009 (ip), vehicle: saline with Tween-80) was 95 % of control, the T/C (dose: 0.08 mg/kg/injection, schedule: Q01DX009 (ip), vehicle: saline with Tween-80) was 105 % of control and the T/C (dose: 0.14 mg/kg/injection, schedule: Q01DX009 (ip), vehicle: saline with Tween-80) was 112 % of control. For the same compound, the T/C (dose: 0.19 mg/kg/injection, schedule: Q01DX009 (ip), vehicle: saline) was 107 % of control, the T/C (dose: 0.65 mg/kg/injection, schedule: Q01DX009 (ip), vehicle: saline with Tween-80) was 170 % of control and the T/C (dose: 1.1 mg/kg/injection, schedule: Q01DX009 (ip), vehicle: saline with Tween-80) was 205 % of control. The T/C (dose: 1.5 mg/kg/injection, schedule: Q01DX009 (ip), vehicle: saline) was 185 % of control.
For CN(C)C=NC1CCC(C(C)(C)C)CC1 (stereo unspecified), the T/C [1] was 89 % of control, the T/C [2] was 93 % of control and the T/C [3] was 86 % of control.
In the case of CCC1OC(=O)CC(O)C(C)C(OC2OC(C)CC(N(C)C)C2O)C(CC=O)CC(C)C(=O)/C=C/C2(C)OC2C1C (stereo unspecified), the T/C [4] is reported as 88 % of control and the T/C [5] is reported as 92 % of control.
With O=C1C=CC(=O)C2=C1C1c3ccccc3C2([N+](=O)[O-])c2ccccc21 the T/C [5] was 97 % of control, the T/C [6] was 97 % of control and the T/C [7] was 100 % of control.
[O-]c1cc2c3c(c1)c1cc4c(cc1c[n+]3C=C2)OCO4 was tested, and the T/C (dose: 3.13 mg/kg/injection, schedule: Q01DX009 (ip), vehicle: water) was 96 % of control, the T/C (dose: 6.25 mg/kg/injection, schedule: Q01DX009 (ip), vehicle: water) was 121 % of control and the T/C (dose: 12.5 mg/kg/injection, schedule: Q01DX009 (ip), vehicle: water) was 122 % of control. The T/C (dose: 25.0 mg/kg/injection, schedule: Q01DX009 (ip), vehicle: water) was 124 % of control and the T/C [8] was 114 % of control.
In the case of CC(=O)CC(=O)Nc1ccc2ccccc2c1, the T/C [3] is reported as 93 % of control, the T/C [4] is reported as 90 % of control and the T/C [5] is reported as 93 % of control.
C=C1C(=O)OC2/C=C(\C)CC/C=C(/C=O)C(OC)C(OC(=O)C(C)C)C12 (stereo unspecified) was tested, and the T/C [1] was 113 % of control, the T/C [2] was 111 % of control and the T/C [3] was 104 % of control.
In the case of CCCC1OC(/C=C/c2ccccc2)OCC1CC (stereo unspecified), the T/C [9] is reported as 110 % of control, the T/C [10] is reported as 110 % of control and the T/C [11] is reported as 98 % of control.
For c1ccc(-c2nn3c(-c4ccccc4)nnc3o2)cc1, the T/C [9] was 93 % of control, the T/C [10] was 92 % of control and the T/C [11] was 92 % of control.
In the case of Cc1cc(C)c(COCc2cc(C)c(C)cc2C)cc1C, the T/C [8] is reported as 95 % of control and the T/C (dose: 100.0 mg/kg/injection, schedule: Q01DX009 (ip), vehicle: water) is reported as 95 % of control.
In the case of O=C(O)C(Br)C(Br)c1ccccc1 (stereo unspecified), the T/C (dose: 100.0 mg/kg/injection, schedule: Q04DX003 (ip), vehicle: saline with Tween-80) is reported as 86 % of control, the T/C (dose: 200.0 mg/kg/injection, schedule: Q04DX003 (ip), vehicle: saline with Tween-80) is reported as 93 % of control and the T/C (dose: 400.0 mg/kg/injection, schedule: Q04DX003 (ip), vehicle: saline with Tween-80) is reported as 86 % of control.
CNCCCN(C)CCCNC was tested, and the T/C [12] was 121 % of control, the T/C [13] was 109 % of control and the T/C [14] was 96 % of control and 111 % of control.
For CC(C)c1c[nH]c(=O)[nH]c1=O, the T/C [5] was 100 % of control, the T/C [6] was 92 % of control and the T/C [7] was 95 % of control.
For CC(C)[NH-].CC(C)[NH-].[Cl][Pt+2][Cl], the T/C (dose: 12.5 mg/kg/injection, schedule: Q01DX009 (ip), vehicle: dextrose) was 155 % of control.
For CC(C)CC(NC(=O)CCl)C(=O)O (stereo unspecified), the T/C (dose: 6.25 mg/kg/injection, schedule: Q01DX009 (ip), vehicle: saline with Tween-80) was 110 % of control, the T/C [15] was 95 % of control and the T/C [16] was 95 % of control.
With NC(CC(=O)CCl)C(=O)O (stereo unspecified) the T/C (dose: 3.13 mg/kg/injection, schedule: Q01DX009 (ip), vehicle: saline) was 109 % of control and the T/C [12] was 118 % of control.
In the case of Cc1cccc(C)c1NC(=O)Nc1ccc(Cl)c(Cl)c1, the T/C (dose: 25.0 mg/kg/injection, schedule: Q01DX009 (ip), vehicle: other) is reported as 95 % of control, the T/C (dose: 50.0 mg/kg/injection, schedule: Q01DX009 (ip), vehicle: other) is reported as 99 % of control and the T/C (dose: 100.0 mg/kg/injection, schedule: Q01DX009 (ip), vehicle: other) is reported as 87 % of control and 103 % of control.
In the case of CCOC(=O)CN1CCC(C2(c3cc4ccccc4[nH]3)OCCO2)CC1, the T/C [4] is reported as 105 % of control, the T/C [5] is reported as 93 % of control and the T/C [6] is reported as 99 % of control.
For O=C1C(N2CC2)=C(N2CCCC(O)C2)C(=O)C(N2CC2)=C1N1CCCC(O)C1 (stereo unspecified), the T/C (dose: 0.25 mg/kg/injection, schedule: Q01DX009 (ip), vehicle: saline) was 113 % of control and the T/C (dose: 0.5 mg/kg/injection, schedule: Q01DX009 (ip), vehicle: saline) was 120 % of control.
CC(C)(C)C1CC(C(F)(F)F)(C(F)(F)F)OS(=O)O1 (stereo unspecified) was tested, and the T/C (dose: 1.56 mg/kg/injection, schedule: Q04DX003 (ip), vehicle: saline) was 102 % of control, the T/C (dose: 3.13 mg/kg/injection, schedule: Q04DX003 (ip), vehicle: saline) was 115 % of control and the T/C (dose: 6.25 mg/kg/injection, schedule: Q04DX003 (ip), vehicle: saline) was 105 % of control.
N#Cc1nc2ccccc2nc1C#N was tested, and the T/C [2] was 110 % of control, the T/C (dose: 12.5 mg/kg/injection, schedule: Q04DX003 (ip), vehicle: Klucel (hydroxypropylcellulose) (HPC)) was 97 % of control and the T/C (dose: 25.0 mg/kg/injection, schedule: Q04DX003 (ip), vehicle: Klucel (hydroxypropylcellulose) (HPC)) was 102 % of control. For the same compound, the T/C (dose: 50.0 mg/kg/injection, schedule: Q04DX003 (ip), vehicle: Klucel (hydroxypropylcellulose) (HPC)) was 95 % of control.
C/C=C(/C)C(=O)O[C@H]1CCN2CC=C(COC(=O)[C@@](O)([C@H](C)OC)C(C)(C)O)[C@H]12 was tested, and the T/C [13] was 114 % of control and the T/C [14] was 104 % of control.
For CC(=O)OC(C)c1ccccc1 (stereo unspecified), the T/C [5] was 93 % of control and the T/C [6] was 96 % of control.
For CCOc1ccc(N=Nc2ccc(N)cc2N)cc1, the T/C [5] was 101 % of control, the T/C [6] was 106 % of control and the T/C [7] was 108 % of control.
In the case of C=CCC(C(C)=O)C(=O)OCC (stereo unspecified), the T/C [5] is reported as 106 % of control, the T/C [6] is reported as 110 % of control and the T/C [7] is reported as 110 % of control.
With CC(=O)CCc1ccc(O)cc1 the T/C [9] was 90 % of control, the T/C [10] was 100 % of control and the T/C [11] was 92 % of control.
For CC1CN1P(=S)(Oc1ccccc1)N1CC1C (stereo unspecified), the T/C [16] was 97 % of control, the T/C [17] was 95 % of control and the T/C [9] was 93 % of control and 97 % of control. The T/C [11] was 100 % of control.
In the case of Cc1cccc2c(C(=O)O)cc(-c3ccc(Cl)cc3)nc12, the T/C [15] is reported as 97 % of control, the T/C [16] is reported as 97 % of control and the T/C [17] is reported as 95 % of control.
With CC1=NN(c2ccccc2)C(=O)C1CC1C(=O)N(c2ccccc2)N=C1C (stereo unspecified) the T/C [9] was 95 % of control, the T/C [10] was 95 % of control and the T/C [11] was 89 % of control.
O.O.O=c1[nH]cc(CO)c(=O)[nH]1.[NH2-].[NH2-].[Pt+2] was tested, and the T/C (dose: 3.12 mg/kg/injection, schedule: Q01DX009 (ip), vehicle: Klucel (hydroxypropylcellulose) (HPC)) was 107 % of control, the T/C [1] was 106 % of control and the T/C [3] was 185 % of control.
With CC(C)=CC(=O)OCC[N+](C)(C)C the T/C (dose: 1.56 mg/kg/injection, schedule: Q01DX009 (ip), vehicle: saline) was 114 % of control, the T/C (dose: 3.12 mg/kg/injection, schedule: Q01DX009 (ip), vehicle: saline) was 112 % of control and the T/C [12] was 104 % of control. For the same compound, the T/C [13] was 102 % of control and the T/C [14] was 101 % of control.
CC(C)OC(=O)Nc1ccc(-c2ccc(NC(=O)OC(C)C)cc2)cc1 was tested, and the T/C [5] was 109 % of control, the T/C (dose: 100.0 mg/kg/injection, schedule: Q04DX003 (ip), vehicle: Klucel (hydroxypropylcellulose) (HPC)) was 109 % of control and the T/C [6] was 118 % of control. For the same compound, the T/C (dose: 200.0 mg/kg/injection, schedule: Q04DX003 (ip), vehicle: Klucel (hydroxypropylcellulose) (HPC)) was 90 % of control, the T/C [7] was 109 % of control and the T/C (dose: 400.0 mg/kg/injection, schedule: Q04DX003 (ip), vehicle: Klucel (hydroxypropylcellulose) (HPC)) was 92 % of control.
For ClCCN(CCCl)c1ccc(/C=C/c2ccccc2)cc1, the T/C [1] was 98 % of control, the T/C [2] was 96 % of control and the T/C [3] was 96 % of control. For the same compound, the T/C [4] was 90 % of control and the T/C [5] was 101 % of control.
With C[N+](C)(C)c1ncnc2nc[nH]c12 the T/C [13] was 92 % of control, the T/C [14] was 89 % of control and the T/C (dose: 50.0 mg/kg/injection, schedule: Q01DX009 (ip), vehicle: saline) was 93 % of control. The T/C (dose: 100.0 mg/kg/injection, schedule: Q01DX009 (ip), vehicle: saline) was 103 % of control and the T/C (dose: 200.0 mg/kg/injection, schedule: Q01DX009 (ip), vehicle: saline) was 87 % of control.
